The results in this text go back to patent US20090317419A1, “Tetramers” (Duke University, priority 2008, published 2009).

The target of test [1] is gp41 MPER tetramer. The experiment in a line: SPR, captured mAb, tetramer injected.
In test [2] the target is gp41 MPER tetramer. The experiment in a line: flow cytometry, gp41 MPER tetramer on a mixture of 15% 13H11 hybridoma cells and 85% F39F cells (FIG. 4B); the value follows the mixing ratio.
For test [3], the target named is gp41 MPER tetramer. The experiment in a line: flow cytometry, gp41 MPER tetramer on the 15% 13H11 / 85% F39F cell mixture diluted tenfold with F39F cells (FIG. 4C); the value follows the mixing ratio.
Test [4] deals with gp41 MPER tetramer. The experiment in a line: flow cytometry, gp41 MPER tetramer on the 13H11 / F39F cell mixture diluted a hundredfold in all with F39F cells (FIG. 4D); the value follows the mixing ratio.
Test [5] has as its system antibody coated beads (P3X63/Ag8, A32, 7B9, F39F, 7B2, 13H11, 2F5). The conditions noted are these: flow cytometry, all antibody coated beads tested. Here is the method: (§1) Antibody-coated beads. Carboxyl-polystyrene beads (3.0-3.4 μm) (Spherotech, Inc., Lake Forest, Ill.) were resuspended in 0.01 M sodium acetate buffer (pH 5.0) and reacted (20° C.×1 hr) with 1-ethyl-3-(3-dimethylaminopropyl) carbodiimide hydrochloride (EDC) (Sigma-Aldrich, Co., St. Louis, Mo.) at a ratio of 3.1 mg beads to 1 mg EDC. Beads were washed with sodium acetate buffer, resuspended in a minimal volume before adding purified mAb in the same buffer (ratio of 16 mg beads to 1 mg mAb), incubated (20° C.×2 hrs), then washed with sodium acetate buffer. Beads were resuspended at 5% in PBS containing 1% bovine serum albumin and 0.02% sodium azide.
(§2) Use of antibody-coated beads and cell lines for tetramer quality control. Tetramer stocks were diluted to twice the desired final concentration in PBS containing 1% BSA. An equal volume of beads or cells at 5×10^5 up to 2×10^6 per sample were mixed with tetramer and incubated (4° C.×30 min). Beads or cells were washed with PBS+1% BSA before being fixed in 2% methanol-free formaldehyde (Polysciences, Inc, Warrington, Pa.) in PBS. Samples were stored at 4° C. prior to being analyzed by flow cytometry (BD LSR II, Becton Dickinson, Mountain View, Calif.). Data were analyzed using FlowJo (Tree Star, Ashland, Oreg.). For tetramer titration 40-80 ng tetramer per 10^6 cells/beads was serially diluted over 8-12 points. Optimal concentrations determined by this method were used for subsequent experiments. For cold competition experiments the incubation step was performed by staining with 10-fold excess unlabeled tetramer (4° C.×30 min) prior to the addition of APC-labeled tetramer. For cell dilution experiments, a mixture of mAb cell lines was made and then 1:10 serial dilutions of cells prepared. For cross competition experiments, mixtures of cells were prepared and then stained singly with anti-IgG reagents or tetramer, or the cells were doubly stained with both reagents either sequentially or concurrently.

In test [6] the test system is mAb cell lines P3X63/Ag8, F39F, 7B2, 13H11. Particulars: flow cytometry, all Ig+ cell lines tested. How it is done: as §2
The test system of test [7] is total naïve splenic BALB/c B cells. Particulars: APC-labeled tetramer. Here is the method: (§3) Cell isolation, serum collection, and PBMC isolations. Heparinized or non-heparanized blood was collected sub-mandibularly 10 days after immunizations. For preparation of peripheral blood lymphocytes for B cell tetramer analysis, PBMC were isolated from blood collected in heparinized tubes (0.2 ml) using Lympholyte M (Cederlane). For Luminex and ELISA assays, sera was isolated from non-heparanized blood and stored at −20° C. until use. Spleen, bone marrow (BM), and peritoneal cavity (PerC) cells were also collected. For most immunizations, tissues were harvested after the 4th boost, except for kinetic studies, in which tissues from mice were harvested after 1, 3 or 7 days after a single immunization. For BM preparations, femora and tibiae were removed, aspirated with tissue medium using 23 gauge needles, filtered with 70 μm cell strainers (BD labware), and RBC-depleted using Tris-buffered ammonium chloride lysis. For splenocyte preparation, spleens were harvested and dissociated into single-cell suspensions either by passage through 70 μm cell strainers in tissue medium or by using frosted glass slides, and blood erythrocytes were depleted with ammonium chloride lysis. For isolation of peritoneal cells, peritoneal cavities of sacrificed mice were lavaged by injection with 10 ml of PBS, followed by gentle massage of the abdomen, and withdrawal of the peritoneal exudates. BM, splenic, and peritoneal single cell suspensions were centrifuged at 1500 rpm for 5 min and resuspended in 5, 10, and 1 ml of tissue media, respectively, for cell counts and immunofluorescence staining. Cell counts were performed in duplicate on a Coulter ZI Dual Threshold Cell Counter (Coulter).
(§4) Antibodies and flow cytometry. Immunofluorescent staining of single cell suspensions (≧2×10^6) was conducted using pre-mixed combinations of fluorochrome-labeled antibodies and APC-conjugated B cell tetramers at empirically-determined optimal concentrations. All antibodies were from BD unless otherwise stated. […] Other reagents included biotinylated antibodies against dump channel markers: Thy1 (Ox7; Abcam), F4/80 (BM8; Abcam), CD11c (clone HL3), Gr-1 (clone RB6-8C5), TER-119, and NK-1.1 (clone PK136), secondary staining SA-Texas Red conjugate; v-amine live/dead violet dye (Molecular Probes), and Fc block (anti-CD16/32; clone 2.4G2).
(§5) Staining was conducted at 4° C. in several sequential steps in FACS staining buffer (1×PBS with 2% FCS, 0.1% NaN3), washing twice between steps. First, cells were incubated with v-amine live/dead dye for 15 min. Next, cells were stained with APC-labeled tetramers for 30 min. Where applicable, this was preceded by addition of cold tetramer at 10 fold molar excess for 1 h. Finally, cells were stained with Fc block for 30 min, followed by incubation with combinations of primary antibody cocktails for 30 min, and secondary staining with SA-Texas Red for 30 min.
(§6) Data were acquired using an LSRII flow cytometer and Cell Quest software (BD Immunocytometry systems). A minimum of 250000 events were acquired per sample. FACS Analysis was performed using FlowJo software (Tree Star). For analysis, single cells were positively gated based on their forward scatter height vs. forward scatter area and side scatter height vs. side scatter area profiles, lymphocytes were then positively gated based on their forward and side scatter profile (live lymphocyte gate), residual dead cells were excluded with negative gating on v-amine live/dead dye, and all irrelevant non-B cells were excluded with negative gating on dump markers Thy1, F4/80, CD11c, Gr-1, TER-119, and NK-1.1.

The test system of another test is mAb F39F (anti-gp120 V3). Particulars: SPR, mAb F39F captured, 25° C., PBS pH 7.4. Here is the method: Surface Plasmon Resonance (SPR) measurements of tetramer binding to peptide epitopes. Tetramer binding assays were carried out on a BIAcore 3000 (BIAcore/GE Healthcare, Piscataway, N.J.) instrument using mAbs against each specific B cell epitope.
Each mAb (about 1000 RU) was first captured on anti-human Fc mAb (Pierce, Rockford, Ill.) immobilized on a CM5 sensor chip. Approximately 3000 RU of anti-human Fc mAb was covalently coupled to each flow cell of the sensor chip as described before (Alam et al, Journal of Immunology 178:4424-4435 (2007)). Each B cell tetramer was injected over its epitope specific mAb or a control surface immobilized with irrelevant mAb. For each tetramer binding curve, non-specific binding signals obtained from the control surface were subtracted. The binding assay was monitored at 25° C. and using PBS, pH 7.4, as the running buffer. The BIAevaluation 3.0 software (BIAcore/GE Healthcare, Piscataway, N.J.) was used for SPR binding data analyses.

Test [8] concerns V3 loop mAbs 7B9 and F39F on beads. The conditions noted are these: flow cytometry. How it is done: as §1, §2
For another test, the system named is F39F cells. The conditions noted are these: flow cytometry. Here is the method:
as §2

For test [9], the system named is mixture of F39F cells and P3X63/Ag8 cells. Particulars: 6% F39F cells, 94% P3X63/Ag8 cells; sequential or simultaneous staining. How it is done: as §2
The test system of test [10] is total naïve splenic C57BL/6 B cells. The conditions noted are these: C57BL/6, APC-labeled tetramer. Here is the method: as §3, §4, §5, §6
Test [11] concerns mAb 7B9 (anti-gp120 V3 62.19). Particulars: SPR, mAb 7B9 captured.
The nature of test [12]: gp41 HR2 peptide immunization, serum anti-2F5 epitope Ab ELISA, BALB/c. Format: in vivo, BALB/c mice. The conditions noted are these: peptide in Emulsigen + oCpG, i.p., ELISA 10 days after each immunization. How it is done:
(§7) Peptide immunogen formulation, dose, route of immunization, and immunization schedule. The peptide immunogen used was a gp41 heptad repeat-2 (HR2) DP 1 78Q16L peptide ([…]), synthesized and purified from Primm, and verified to be >95% purified as determined by mass spectrometry. Lyophilized peptide immunogens stored at 4° C. (Primm Biotechnology) were reconstituted by dissolving in DMSO at 8 mg/ml and bringing up to 1 mg/ml in saline. Adjuvanting was done by dissolving mouse oCpG, (5′-[…]-3′; Midland Certified Reagent Company) in saline at 1 mg/ml and first mixing with Oil/water Emulsigen (MVP laboratories) in saline, then with peptide, such as to create a final mixture of 50 μg/ml oCpG, 125 μg/ml peptide, 10% Emulsigen (for i.p. immunizations) and 200 μg/ml oCpG, 500 μg/ml peptide, 10% Emulsigen (for i.m. immunizations). Immunization primes and boosts were all done at a single site intraperitoneally using a volume of 200 μl of the above formulation, such that mice in all instances were injected with 25 μg peptide and 10 μg oCpG. Mice were primed for 10 days and then boosted four times, every 14 days.
(§8) Cell isolation, serum collection, and PBMC isolations.
(§9) ELISA assays. […] Optical density was read at 405 nm with a BioRad 680 microplate reader. […]

A short description of test [13]: gp41 HR2 peptide immunization, serum anti-2F5 epitope Ab ELISA, C57BL/6. It is filed as in vivo, C57BL/6 mice. The conditions noted are these: C57BL/6, peptide in Emulsigen + oCpG, i.p., ELISA 10 days after each immunization. How it is done:
as §7, §8, §9

Ends that are not written are not given here. * marks the point of attachment. Biotin = O=C1N[C@H]2[C@H](CS[C@H]2CCCCC(=O)*)N1

gp41 MPER tetramer, sequence (P22629 37-163 limits assumed): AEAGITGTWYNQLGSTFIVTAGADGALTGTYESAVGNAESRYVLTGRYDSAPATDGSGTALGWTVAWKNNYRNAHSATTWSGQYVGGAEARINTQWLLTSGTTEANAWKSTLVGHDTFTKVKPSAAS

Regarding 13H11 (antibody), the koff in the test with gp41 MPER tetramer [1] was determined as 0.0081 s⁻¹. The kon in the test with gp41 MPER tetramer [1] was 206000 M⁻¹ s⁻¹. In addition, the percent of cells of the mixture stained with the tetramer with gp41 MPER tetramer [2] came out at 15.1%; in the test with gp41 MPER tetramer [3] it was 1.47%. Moreover, the percent of cells of the mixture stained with the tetramer over background with gp41 MPER tetramer [4] amounted to 0.12%.
On to “Biotin-GGGGGDWEYSVWLSN [dsDNA mimic tetramer]”, for which the “binding to any antibody on beads” value in [5] is recorded as “did not bind”. Besides, the “binding to mAb cell lines” value in [6] is listed as “no cell line bound”. For the same substance, the “binding to total naïve splenic B cells” value in test [7] is recorded as “no significant binding above background”.
Consider “Biotin-GGGTRPNNNTRKSIHIGPGRAFYATE [62.19 V3 tetramer]”, for which the koff amounted to 0.60 s^−1 × 10^−3 in the test with mAb F39F (anti-gp120 V3) and 0.19 s^−1 × 10^−3 in test [11]. Besides, the kon turned out to be 60.5 M^−1s^−1 × 10^3 in the test with mAb F39F (anti-gp120 V3) and 35.6 M^−1s^−1 × 10^3 in test [11]. In test [8], the “binding to antibody-coated beads” value is “bound to both V3 loop mAbs 7B9 and F39F”. Further, the “binding to mAb cell line” value in the test on F39F cells is given as “bound”. Also, the “effect of PE labeled anti-IgG heavy chain reagent on tetramer binding” value in [9] is reported as “does not inhibit”. For the same substance, the “binding to total naïve splenic B cells” value in test [7] and in [10] was “minimal binding” throughout.
On to enfuvirtide, for which the “anti-2F5 serum Ab response” value in test [12] is “robust anti-2F5 serum Ab responses”. Further, the “anti-2F5 serum Ab titers” value in test [13] is reported as “no appreciable anti-2F5 serum Ab titers”.
